The values below are quoted from earlier work in US6506055B1, “Method of reducing dentin sensitivity and compositions therefor” (MCG Research Institute, priority 1999, dated 2003).

The conditions of this data set: 3% w/v applied to dentin; both in vitro and in vivo.

In the case of `O=C([O-])C(=O)O.[K+]` [monopotassium-monohydrogen oxalate], the “Hydraulic conductance of dentin” value is reported as “reduced”.
